Columns and labels:
Experiment in all cases: relative viability (nuclei count vs DMSO), 5 days (fraction); higher = more cells survive
COR-L 105 = tested on: COR-L 105
How it was run: (§1)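 Cells from lung cancer lines were seeded into 1536-well plates and, one day later, dosed by pin tool. Treatments were either a single drug or a fixed dose of an anchor drug with five library-drug doses (not always all listed) in √10 steps. After 5 days, nuclei were stained in a one-step fixation (final 0.05% Triton X-100, 1% formaldehyde, 1 ug/ml Hoechst) and counted on 4× images, and relative viability is the treated-to-vehicle nuclei ratio, as the median of duplicate plates.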

NCI-H358 = tested on: NCI-H358
How it was run: as §1

HOP-62 = tested on: HOP-62
How it was run: as §1

HCC-44 = tested on: HCC-44
How it was run: as §1

NCI-H2342 = tested on: NCI-H2342
How it was run: as §1

201T = tested on: 201T
How it was run: as §1

NCI-H1437 = tested on: NCI-H1437
How it was run: as §1

NCI-H1666 = tested on: NCI-H1666
How it was run: as §1

EKVX = tested on: EKVX
How it was run: as §1

SW 1573 = tested on: SW 1573
How it was run: as §1

PC-3 [JPC-3] = tested on: PC-3 [JPC-3]
How it was run: as §1

NCI-H2087 = tested on: NCI-H2087
How it was run: as §1

NCI-H1395 = tested on: NCI-H1395
How it was run: as §1

NCI-H1975 = tested on: NCI-H1975
How it was run: as §1

NCI-H647 = tested on: NCI-H647
How it was run: as §1

NCI-H2085 = tested on: NCI-H2085
How it was run: as §1

BEN = tested on: BEN
How it was run: as §1

LU99A = tested on: LU99A
How it was run: as §1

EPLC-272H = tested on: EPLC-272H
How it was run: as §1

H3255 = tested on: H3255
How it was run: as §1

HCC-827 = tested on: HCC-827
How it was run: as §1

LCLC-97TM1 = tested on: LCLC-97TM1
How it was run: as §1

LOU-NH91 = tested on: LOU-NH91
How it was run: as §1

`NC(=O)Nc1cc(-c2cccc(F)c2)sc1C(=O)N[C@H]1CCCNC1` [AZD7762] + O=C(c1cc(Cc2n[nH]c(=O)c3ccccc23)ccc1F)N1CCN(C(=O)C2CC2)CC1 [Olaparib] (partner 8 µM) gave a relative viability (COR-L 105; first compound 0.01 µM) of 0.699, a relative viability (COR-L 105; first compound 0.03162 µM) of 0.643 and a relative viability (COR-L 105; first compound 0.1 µM) of 0.529. It also gave a relative viability (COR-L 105; first compound 0.3162 µM) of 0.542, a relative viability (COR-L 105; first compound 1 µM) of 0.516 and a relative viability (NCI-H358; first compound 0.01 µM) of 0.872. The relative viability (NCI-H358; first compound 0.03162 µM) was 0.64, the relative viability (NCI-H358; first compound 0.1 µM) was 0.715 and the relative viability (NCI-H358; first compound 0.3162 µM) was 0.408. For the same compound, the relative viability (NCI-H358; first compound 1 µM) was 0.212, the relative viability (HOP-62; first compound 0.01 µM) was 0.541 and the relative viability (HOP-62; first compound 0.03162 µM) was 0.239. For the same compound, the relative viability (HOP-62; first compound 0.1 µM) was 0.313, the relative viability (HOP-62; first compound 0.3162 µM) was 0.297 and the relative viability (HOP-62; first compound 1 µM) was 0.136. For the same compound, the relative viability (HCC-44; first compound 0.01 µM) was 0.986, the relative viability (HCC-44; first compound 0.03162 µM) was 0.922 and the relative viability (HCC-44; first compound 0.1 µM) was 1.01. The relative viability (HCC-44; first compound 0.3162 µM) was 0.964, the relative viability (HCC-44; first compound 1 µM) was 0.954 and the relative viability (NCI-H2342; first compound 0.01 µM) was 0.449. For the same compound, the relative viability (NCI-H2342; first compound 0.03162 µM) was 0.393, the relative viability (NCI-H2342; first compound 0.1 µM) was 0.496 and the relative viability (NCI-H2342; first compound 0.3162 µM) was 0.457. For the same compound, the relative viability (NCI-H2342; first compound 1 µM) was 0.515, the relative viability (201T; first compound 0.01 µM) was 0.821 and the relative viability (201T; first compound 0.03162 µM) was 0.854. It also gave a relative viability (201T; first compound 0.1 µM) of 0.885, a relative viability (201T; first compound 0.3162 µM) of 0.566 and a relative viability (201T; first compound 1 µM) of 0.475. The relative viability (NCI-H1437; first compound 0.01 µM) was 0.696, the relative viability (NCI-H1437; first compound 0.03162 µM) was 0.648 and the relative viability (NCI-H1437; first compound 0.1 µM) was 0.621. The relative viability (NCI-H1437; first compound 0.3162 µM) was 0.612, the relative viability (NCI-H1437; first compound 1 µM) was 0.433 and the relative viability (NCI-H1666; first compound 0.01 µM) was 0.85. For the same compound, the relative viability (NCI-H1666; first compound 0.03162 µM) was 0.973, the relative viability (NCI-H1666; first compound 0.1 µM) was 1.06 and the relative viability (NCI-H1666; first compound 0.3162 µM) was 0.968. It also gave a relative viability (NCI-H1666; first compound 1 µM) of 0.814, a relative viability (EKVX; first compound 0.01 µM) of 0.82 and a relative viability (EKVX; first compound 0.03162 µM) of 1.04. For the same compound, the relative viability (EKVX; first compound 0.1 µM) was 0.62, the relative viability (EKVX; first compound 0.3162 µM) was 0.844 and the relative viability (EKVX; first compound 1 µM) was 0.393. The relative viability (SW 1573; first compound 0.01 µM) was 0.453, the relative viability (SW 1573; first compound 0.03162 µM) was 0.526 and the relative viability (SW 1573; first compound 0.1 µM) was 0.403. For the same compound, the relative viability (SW 1573; first compound 0.3162 µM) was 0.408, the relative viability (SW 1573; first compound 1 µM) was 0.221 and the relative viability (PC-3 [JPC-3]; first compound 0.01 µM) was 1.19. It also gave a relative viability (PC-3 [JPC-3]; first compound 0.03162 µM) of 1.06, a relative viability (PC-3 [JPC-3]; first compound 0.1 µM) of 1.12 and a relative viability (PC-3 [JPC-3]; first compound 0.3162 µM) of 1.05. The relative viability (PC-3 [JPC-3]; first compound 1 µM) was 0.634, the relative viability (NCI-H2087; first compound 0.01 µM) was 0.712 and the relative viability (NCI-H2087; first compound 0.03162 µM) was 0.768. The relative viability (NCI-H2087; first compound 0.1 µM) was 0.806, the relative viability (NCI-H2087; first compound 0.3162 µM) was 0.858 and the relative viability (NCI-H2087; first compound 1 µM) was 0.583. For the same compound, the relative viability (NCI-H1395; first compound 0.01 µM) was 0.505, the relative viability (NCI-H1395; first compound 0.03162 µM) was 0.415 and the relative viability (NCI-H1395; first compound 0.1 µM) was 0.393. It also gave a relative viability (NCI-H1395; first compound 0.3162 µM) of 0.387, a relative viability (NCI-H1395; first compound 1 µM) of 0.354 and a relative viability (NCI-H1975; first compound 0.01 µM) of 0.767. It also gave a relative viability (NCI-H1975; first compound 0.03162 µM) of 0.682, a relative viability (NCI-H1975; first compound 0.1 µM) of 0.638 and a relative viability (NCI-H1975; first compound 0.3162 µM) of 0.538. It also gave a relative viability (NCI-H1975; first compound 1 µM) of 0.401, a relative viability (NCI-H647; first compound 0.01 µM) of 0.612 and a relative viability (NCI-H647; first compound 0.03162 µM) of 0.494. It also gave a relative viability (NCI-H647; first compound 0.1 µM) of 0.238, a relative viability (NCI-H647; first compound 0.3162 µM) of 0.0816 and a relative viability (NCI-H647; first compound 1 µM) of 0.0532. For the same compound, the relative viability (NCI-H2085; first compound 0.01 µM) was 0.872, the relative viability (NCI-H2085; first compound 0.03162 µM) was 0.86 and the relative viability (NCI-H2085; first compound 0.1 µM) was 0.917. For the same compound, the relative viability (NCI-H2085; first compound 0.3162 µM) was 0.88, the relative viability (NCI-H2085; first compound 1 µM) was 0.903 and the relative viability (BEN; first compound 0.01 µM) was 1.05. For the same compound, the relative viability (BEN; first compound 0.03162 µM) was 1.04, the relative viability (BEN; first compound 0.1 µM) was 0.966 and the relative viability (BEN; first compound 0.3162 µM) was 1.01. It also gave a relative viability (BEN; first compound 1 µM) of 0.658, a relative viability (LU99A; first compound 0.01 µM) of 0.253 and a relative viability (LU99A; first compound 0.03162 µM) of 0.246. It also gave a relative viability (LU99A; first compound 0.1 µM) of 0.202, a relative viability (LU99A; first compound 0.3162 µM) of 0.148 and a relative viability (LU99A; first compound 1 µM) of 0.124. The relative viability (EPLC-272H; first compound 0.01 µM) was 1.08, the relative viability (EPLC-272H; first compound 0.03162 µM) was 0.707 and the relative viability (EPLC-272H; first compound 0.1 µM) was 0.586. For the same compound, the relative viability (EPLC-272H; first compound 0.3162 µM) was 0.219, the relative viability (EPLC-272H; first compound 1 µM) was 0.0768 and the relative viability (H3255; first compound 0.01 µM) was 0.551. The relative viability (H3255; first compound 0.03162 µM) was 0.542, the relative viability (H3255; first compound 0.1 µM) was 0.59 and the relative viability (H3255; first compound 0.3162 µM) was 0.518. The relative viability (H3255; first compound 1 µM) was 0.497, the relative viability (HCC-827; first compound 0.01 µM) was 0.654 and the relative viability (HCC-827; first compound 0.03162 µM) was 0.678. It also gave a relative viability (HCC-827; first compound 0.1 µM) of 0.64, a relative viability (HCC-827; first compound 0.3162 µM) of 0.267 and a relative viability (HCC-827; first compound 1 µM) of 0.288. For the same compound, the relative viability (LCLC-97TM1; first compound 0.01 µM) was 0.493, the relative viability (LCLC-97TM1; first compound 0.03162 µM) was 0.523 and the relative viability (LCLC-97TM1; first compound 0.1 µM) was 0.438. It also gave a relative viability (LCLC-97TM1; first compound 0.3162 µM) of 0.552, a relative viability (LCLC-97TM1; first compound 1 µM) of 0.198 and a relative viability (LOU-NH91; first compound 0.01 µM) of 0.915. It also gave a relative viability (LOU-NH91; first compound 0.03162 µM) of 0.914, a relative viability (LOU-NH91; first compound 0.1 µM) of 0.867 and a relative viability (LOU-NH91; first compound 0.3162 µM) of 0.834. For the same compound, the relative viability (LOU-NH91; first compound 1 µM) was 0.571.
